Here are results for 1 molecule from patent publication US9023789B2, “Amylin analogs and pharmaceutical compositions thereof” (Novo Nordisk A/S, priority 2012, dated 2015).

Usually IC50 stands for the concentration that inhibits the measured activity by half.

In assay [1] the test system is Sprague Dawley (SD) rats. The experiment in a line: ASSAY (I) efficacy testing on appetite (food intake) using an ad libitum fed rat model. The class given is in vivo. As to conditions: rat, 30 nmol/kg. From the text:
Sprague Dawley (SD) rats from Taconic Europe, Denmark are used for the experiments. The rats have a body weight 200-250 g at the start of experiment. The rats arrive at least 10-14 days before start of experiment to allow acclimatization to experimental settings. During this period the animals are handled at least 2 times. After arrival rats are housed individually for one week in a reversed light/dark phase (meaning that lights are off during daytime and on during nighttime) for two weeks. Since rats are normally active and eat their major part of their daily food intake during the dark period, rats are dosed in the morning right before lights are turned off. This set-up results in the lowest data variation and highst test sensitivity. The experiment is conducted in the rats' home cages and rats have free access to food and water throughout the acclimatization period and the experiment period. Each dose of derivative is tested in a group of 5-8 rats. A vehicle group of 6-8 rats is included in each set of testing. Rats are dosed once according to body weight with a 0.01-3 mg/kg solution administered intraperitoneally (ip), orally (po) or subcutaneously (sc). The time of dosing is recorded for each group. After dosing, the rats are returned to their home cages, where they then have access to food and water. The food consumption is recorded individually continuously by online registration or manually every hour for 7 hours, and then after 24 h and sometimes 48 h. At the end of the experimental session, the animals are euthanized.
The individual data are recorded in Microsoft excel sheets. Outliers are excluded after applying the Grubbs statistical evaluation test for outliers, and the result is presented graphically using the GraphPad Prism program.

The target in assay [2] is T1, human amylin 3(a) receptor (human calcitonin receptor + RAMP-3) in BHK570 cells (Homo sapiens, UniProt O60896+P30988).
T1 construct: expressed in transfected cells
The experiment in a line: ASSAY (II)a functional assay, human amylin receptor (CRE luciferase). The format is cell-based. From the text:
1. Luciferase Assay Outline
Activation of calcitonin and amylin (coexpression of calcitonin receptor and receptor activity modifying proteins (RAMP)) receptors lead to increased intracellular concentrations of cAMP. Consequently, transcription is activated by promoters containing multiple copies of the cAMP response element (CRE). It is thus possible to measure amylin activity by the use of a CRE luciferase reporter gene introduced into BHK cells also expressing calcitonin or amylin receptors.
2. Construction of Calcitonin (a)- and Amylin 3(a)-Receptor/CRE-Luc Cell Line.
The cell line was further transfected with RAMP-3, using standard methods. This turns the calcitonin receptor into an amylin 3(a) receptor. Methotrexate, Neomycin, and Hygromycin are selection markers for luciferase, the calcitonin receptor, and RAMP-3, respectively.
To perform activity assays, BHK calcitonin (a) receptor- or amylin 3(a)-receptor/CRE-luc cells were seeded in white 96 well culture plates at a density of about 20.000 cells/well. […] After incubation overnight at 37° C. and 5% CO2, the growth medium was replaced by 50 μl/well assay medium (DMEM (without phenol red), Glutamax™, 10% FBS, and 10 mM Hepes, pH 7.4). Further, 50 μl/well of standard or sample in assay buffer were added. After 3 hours incubation at 37° C. and 5% CO2, the assay medium with standard or sample were removed and replaced by 100 μl/well PBS. Further, 100 μl/well LucLite™ was added. The plates were sealed and incubated at room temperature for 30 minutes. Finally, luminescence was measured on a TopCounter (Packard) in SPC (single photon counting) mode.

The target of assay [3] is T2, human amylin receptor (membranes from Amylin 3(a)/CRE-luc cells) (Homo sapiens, UniProt O60896+P30988).
T2 construct: expressed in transfected cells
T2 sequence (P30988 25-474): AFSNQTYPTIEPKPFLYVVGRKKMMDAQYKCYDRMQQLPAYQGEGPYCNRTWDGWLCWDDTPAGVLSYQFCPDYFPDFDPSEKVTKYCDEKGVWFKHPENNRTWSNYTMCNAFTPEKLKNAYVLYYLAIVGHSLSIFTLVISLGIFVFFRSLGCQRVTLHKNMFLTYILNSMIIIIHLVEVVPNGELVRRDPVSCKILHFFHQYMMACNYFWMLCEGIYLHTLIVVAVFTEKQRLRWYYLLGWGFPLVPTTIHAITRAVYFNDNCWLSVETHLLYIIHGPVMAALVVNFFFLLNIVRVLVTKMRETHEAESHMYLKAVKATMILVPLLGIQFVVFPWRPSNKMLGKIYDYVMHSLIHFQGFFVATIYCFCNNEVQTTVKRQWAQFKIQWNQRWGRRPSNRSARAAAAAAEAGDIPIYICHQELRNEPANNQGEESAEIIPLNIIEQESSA
T2 sequence (O60896 24-148 partner): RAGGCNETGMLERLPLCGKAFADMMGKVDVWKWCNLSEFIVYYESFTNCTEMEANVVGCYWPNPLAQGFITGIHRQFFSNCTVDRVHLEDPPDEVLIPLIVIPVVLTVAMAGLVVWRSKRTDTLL
The experiment in a line: ASSAY (V) binding to the human amylin receptor (SPA, 125I-rat amylin).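 Further: competition binding of cell membranes (35 ng/µL) mixed with SPA beads in 384-well plates at 40 µL total volume, read by scintillation counting.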

For assay [4], the target named is T3, rat amylin receptor (rat calcitonin receptor + rat RAMP 3) (Rattus norvegicus, UniProt P32214+Q9JJ73).
T3 construct: expressed in transfected cells; host or cells: BHK tk'ts 13 (transient, FuGENE 6), membranes
T3 sequence (P32214 25-479 isoform P32214-2 limits assumed): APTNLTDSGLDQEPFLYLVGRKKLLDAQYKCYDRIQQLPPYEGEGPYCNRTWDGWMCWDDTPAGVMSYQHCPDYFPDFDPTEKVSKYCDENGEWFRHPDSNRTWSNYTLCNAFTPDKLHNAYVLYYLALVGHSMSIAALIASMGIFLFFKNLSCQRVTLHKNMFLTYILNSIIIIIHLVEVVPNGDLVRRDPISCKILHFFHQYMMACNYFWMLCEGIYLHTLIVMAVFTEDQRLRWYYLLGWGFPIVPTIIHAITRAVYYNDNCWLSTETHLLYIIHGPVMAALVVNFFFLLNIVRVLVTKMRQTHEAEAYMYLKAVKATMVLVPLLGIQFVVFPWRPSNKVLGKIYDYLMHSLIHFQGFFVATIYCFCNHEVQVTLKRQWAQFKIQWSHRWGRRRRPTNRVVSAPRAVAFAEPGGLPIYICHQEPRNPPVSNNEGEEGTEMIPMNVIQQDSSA
T3 sequence (Q9JJ73 23-147 partner): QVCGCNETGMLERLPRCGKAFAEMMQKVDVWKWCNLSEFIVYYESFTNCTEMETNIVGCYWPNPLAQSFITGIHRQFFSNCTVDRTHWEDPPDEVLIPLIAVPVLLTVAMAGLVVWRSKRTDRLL
The experiment in a line: ASSAY (VI) binding to the rat amylin receptor. How it is done: Assay (VI)—Determination of the Binding to the Rat Amylin Receptor […] The BHK tk′ts 13 cells were transiently transfected with rat calcitonin receptor using FuGENE® 6 (Roche), according to the manufacturer's recommendations. […] Approximately 48 hours after transfection, the cells were harvested and membranes were prepared.

For assay [5], the target named is T4, rat calcitonin receptor (Rattus norvegicus, UniProt P32214).
T4 construct: expressed in transfected cells; host or cells: BHK tk'ts 13 (transient, FuGENE 6), membranes
T4 sequence (P32214 25-479 isoform P32214-2 limits assumed): T3 sequence (P32214 25-479 isoform P32214-2 limits assumed)
The experiment in a line: ASSAY (VIII) binding to the rat calcitonin receptor. As to conditions: Table 7, read-out: rCTR bind IC50. How it is done: Assay (VIII)—Determination of Binding to the Rat Calcitonin Receptor
The BHK tk′ts 13 cells were transiently transfected with rat calcitonin receptor using FuGENE® 6 (Roche), according to the manufacturer's recommendations. Cells were grown in DMEM with 10% FBS and 1% Pen/Strep. Approximately 48 hours after transfection, the cells were harvested and membranes were prepared.

As to `CC[C@H](C)[C@H](NC(=O)[C@H](C)NC(=O)CNC(=O)[C@H](Cc1ccccc1)NC(=O)[C@H](CC(N)=O)NC(=O)[C@@H]1CCCN1C(=O)[C@H](CO)NC(=O)[C@H](CO)NC(=O)[C@H](Cc1c[nH]cn1)NC(=O)[C@H](CCCNC(=N)N)NC(=O)[C@H](CC(C)C)NC(=O)[C@H](Cc1ccccc1)NC(=O)[C@@H](CC(=O)O)NC(=O)[C@H](C)NC(=O)[C@H](CC(C)C)NC(=O)[C@H](CCCNC(=N)N)NC(=O)[C@H](CCC(N)=O)NC(=O)[C@@H](NC(=O)[C@H](C)NC(=O)[C@@H]1CSSC[C@H](NC(=O)[C@@H](N)CCCCNC(=O)CC[C@H](NC(=O)CC[C@H](NC(=O)CCCCCCCCCCCCCCCCCCC(=O)O)C(=O)O)C(=O)O)C(=O)N[C@@H](CC(N)=O)C(=O)N[C@@H]([C@@H](C)O)C(=O)N[C@@H](C)C(=O)N[C@@H]([C@@H](C)O)C(=O)N1)[C@@H](C)O)C(=O)N1CCC[C@H]1C(=O)N[C@@H](CO)C(=O)N[C@@H](CO)C(=O)N[C@H](C(=O)N[C@@H](CC(N)=O)C(=O)N[C@H](C(=O)NCC(=O)N[C@@H](CO)C(=O)N[C@@H](CCCNC(=N)N)C(=O)N[C@H](C(=O)N[C@@H](Cc1ccc(O)cc1)C(N)=O)[C@@H](C)O)C(C)C)[C@@H](C)O` [Example 131], the “Food intake reduction 0-24 h 30 nmol/kg (%)” value in assay [1] (0-24 h) turned out to be 17%. The “Food intake reduction 24-48 h 30 nmol/kg (%)” value in assay [1] (24-48 h) was 14%. In addition, the “Ratio hCT/hAmylin funct.” value in assay [2] (hCTR funct. EC50 divided by hAmylin-R funct. EC50), in assay [2] (hCTR funct. EC50 over hAmylin-R funct. EC50) and in assay [2] (human functional selectivity: hCTR funct. EC50 / hAmylin-R funct. EC50) was 261.1 in each case. The “Ratio hCT/hAmylin binding” value in assay [3] (Table 5, selectivity, hCTR bind IC50 / hAmylin-R bind IC50) was found to be 306.6; in assay [3] (Table 5a, selectivity, hCTR bind IC50 / hAmylin-R bind IC50) it was 306.6; in assay [3] (Table 5b, selectivity, hCTR bind IC50 / hAmylin-R bind IC50), 306.6; in assay [3] (Table 5c, selectivity, hCTR bind IC50 / hAmylin-R bind IC50), 306.6; in assay [3] (Table 7, human binding selectivity, included for comparison), 306.6; in assay [3] (Table 7a (preferred compounds), human binding selectivity, included for comparison), 306.6. The “Ratio hCT/hAmylin binding” value in assay [3] (ratio of human calcitonin receptor binding IC50 to human amylin receptor binding IC50) was 306.6. Moreover, the IC50 amounted to 0.00169 µM in assay [4] (Table 7, binding to rat amylin receptor, read-out: rAmylin-R bind IC50) and 0.536 µM in assay [5]. The “Ratio rCT/rAmylin binding” value was 316.7 in assay [4] (Table 7, rat binding selectivity, rCTR IC50 / rAmylin-R IC50); 316.7 in assay [4] (Table 7a (preferred compounds), rat binding selectivity, rCTR IC50 / rAmylin-R IC50); 316.7 in assay [4] (ratio of rCTR bind IC50 to rAmylin-R bind IC50).
